Measurements from US7671091B2, “Penis enlargement” (priority 2004, dated 2010).

Assays:
human penis [1] = assay: Permanent increase in erect penis length and girth after repeated intracavernosal vasodilator treatment of male patients; type: in vivo
Description: The term “penis length” refers to the maximum length of the penis, as measured along the dorsal surface of the penis from the symphysis pubis to the tip or end of the glans penis when the glans penis is pulled manually and put under tension. Preferably, the measurement is taken when the penis is fully erect.
The term “penis girth” refers to the largest measured value obtained for circumference of the erect penis, as measured in the midshaft region (middle third). Preferably, the measurement is taken when the penis is fully erect.
An engorgement is deemed “cumulative prolonged” when an erectile response lasts for at least 3 hours over a 24 hours period.
(§1) Therefore, a “cumulative prolonged engorgement” would be an erectile response that is over 40% for a period of at least 3 hours in a 24 hours period.
A patient was treated with intracavernosal injections of a vasodilator, prostaglandin E1, on a regular basis (approximately four to five times per week) over an 18 month treatment period. […] The quantity of medication was adjusted from time to time in accordance with the patient's response, which was monitored at least weekly. […]
A patient was treated with intracavernosal injections of a quadruple mix of the vasodilators prostaglandin E1, Atropine, Chlorpromazine and Papavarine on a regular basis (approximately two to four times per week) over a 4-month treatment period. […] The quantity of medication was adjusted in accordance with the patient's response. The potentiator dihydrotestosterone 5% ointment was administered […] starting two weeks before starting the IC injections of the vasodilators Atropine, Chlorpromazine and Papavarine and prostaglandin.

human penis [2] = settings: in vivo
Description: as §1
(§2) The quantity of medication was adjusted in accordance with the patient's response.
as §2

[3] = Example 1: patient, 18-month treatment

Row | SMILES | increase in erect penis length (human penis [1]; Example 6: patient, 4 months, frequently with oral Viagra, dihydrotestosterone gel) | erect penis length after treatment (human penis [1]; Example 6: patient, intracavernosal 2-4 times per week, 4 months, frequently combined with oral Viagra, potentiator dihydrotestosterone gel, from 5.2 inches) | increase in erect penis girth (human penis [1]; [3]) | increase in erect penis length (human penis [1]; [3]) | fully erect penis girth after treatment (human penis [1]; Example 1: patient, 18-month treatment, from 3.7 inches) | fully erect penis length after treatment (human penis [1]; Example 1: patient, intracavernosal, approx. 4-5 times per week, 18-month treatment, from 5.8 inches) | increase in erect penis length (human penis [1]; Example 10: patient, 3 months, with daily subcutaneous dihydrotestosterone) | erect penis length after treatment (human penis [1]; Example 10: patient, two separate IC injections per treatment day, 2-5 times per week, 3 months, dihydrotestosterone 15 mg subcutaneously into the penis daily, from 6.3 inches) | tolerability (sensitivity) (human penis [2])
1 | Cc1ccc(N(CC2=NCCN2)c2cccc(O)c2)cc1 [phentolamine] | ~25% | 6.5 inches | – | – | – | – | – | – | –
2 | CCCCC[C@H](O)/C=C/[C@H]1[C@H](O)CC(=O)[C@@H]1CCCCCCC(=O)O [prostaglandin E1] | – | – | ~56% | ~48% | 5.8 inches | 8.6 inches | ~13% | 7.1 inches | aching and pain at higher doses
